The subject of experiment [1] is HIV-1JR-FL Env on virions. Put plainly: Single-molecule FRET of virion Env. As to conditions: saturating concentration (100 μM). As to the method:
Single-molecule fluorescence resonance energy transfer (smFRET): Viruses with HIV-1JR-FL Env that is double-tagged at V1-Q3 and V4-A1 were prepared for smFRET imaging, as described in Munro, Science 346, 759-763 (2014). The high (40:1) ratio of wild-type Env to tagged Env ensures that, on average, only one tagged protomer is available for imaging on a single virus particle. The Q3 and A1 double-tagged viruses allowed the incorporation of Cy3B and Cy5 fluorescent labels, respectively. Thus, the relative movements of the V1 and V4 regions in one gp120 subunit of an individual Env trimer could be monitored in real time. The smFRET images were acquired on an in-house-built total internal reflection fluorescent microscope, as described in Munro. HIV-1JR-FL viruses incubated with saturating concentrations (100 μM) of AEG-II-168 or control HIV-1JR-FL viruses without compound were used for smFRET imaging. Data were analyzed with the customized MATLAB (Mathworks) program SPARTAN as described in Juette, Nat Methods 13, 341-344 (2016). FRET trajectories meeting the criteria of quality (sufficient signal:noise ratio, single dye photobleaching, anti-correlated features between donor and acceptor intensity and fluorescence lifetime) were compiled into FRET histograms. Hidden Markov modeling was used to fit the FRET histograms with the sum of three Gaussian distributions. […]

Experiment [2] deals with monomeric soluble HIV-1AD8 gp120. Put plainly: Antibody recognition of monomeric gp120. It is filed as binding. The conditions noted are these: 10 μM; CD4-Ig, CD4BS bNAbs, 17b. The method, then: Antibody recognition of monomeric gp120: To produce gp120 monomers, a stop codon was introduced into the HIV-1AD8 env gene sequence encoding the gp120-gp4l junction. […] The supernatants were clarified by low-speed centrifugation and 0.45-μ filtration, and then used for precipitation by antibodies in the absence or presence of 10 μM BMS-806. Precipitates were Western blotted with a goat anti-gp120 polyclonal antibody (ThermoFisher) and 1:3000 HRP-conjugated rabbit anti-goat IgG antibody (ThermoFisher).

With `COc1ccc(-c2ccc(CNC(=O)c3c(F)c(F)c(N=[N+]=[N-])c(F)c3F)o2)c2[nH]cc(C(=O)C(=O)N3CCN(C(=O)c4ccccc4)CC3)c12` [AEG-II-168], in experiment [1], the “Virion Env conformational state by smFRET” value is given as “maintained a State-1-dominant conformation”.

On to `COc1ccnc2[nH]cc(C(=O)C(=O)N3CCN(C(=O)c4ccccc4)C[C@H]3C)c12` [BMS-806, reference compound], for which the “Ligand binding to monomeric gp120” value in experiment [2] is recorded as “mildly decreased gp120 binding”.

Source of the values: patent US12729194B2, “Compounds for the treatment of human immunodeficiency virus” (priority 2019, dated 2026).
